Read-outs that look alike come from different tables or passages of the source.
Columns and labels:
[1] = molecular target: Beta Secretase enzyme (BACE) (Homo sapiens, UniProt P56817); assay: In vitro enzymatic BACE FRET (fluorescence resonance energy transfer) assay; assay type: biochemical; details: average IC50, enzyme assay; read-out: BACE 1 FRET assay
How it was run: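 Buffer 0.05 M acetate pH 4.2, 10% DMSO final, 100 uM genapol (sub-CMC); start with 50 nM FRET substrate; 1 h incubation; Tris stop; fluorescence read.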

[2] = tested on: Aβ40 in conditioned medium of cells stably expressing Amyloid Precursor Protein (APP); assay: In vitro BACE cell-based assay (Aβ40 in conditioned medium, sandwich ELISA); details: Homo sapiens, read-out: HEK cell assay
How it was run: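 Conditioned medium from stably APP-expressing cells treated with compound dose series is assayed for Aβ40 by sandwich ELISA with time-resolved fluorescence detection. IC50 is calculated from percent inhibition of Aβ40 against compound concentration.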

[3] = HEK293, average IC50, HEK cells

Beta Secretase enzyme (BACE), sequence (P56817 46-501, species assumed): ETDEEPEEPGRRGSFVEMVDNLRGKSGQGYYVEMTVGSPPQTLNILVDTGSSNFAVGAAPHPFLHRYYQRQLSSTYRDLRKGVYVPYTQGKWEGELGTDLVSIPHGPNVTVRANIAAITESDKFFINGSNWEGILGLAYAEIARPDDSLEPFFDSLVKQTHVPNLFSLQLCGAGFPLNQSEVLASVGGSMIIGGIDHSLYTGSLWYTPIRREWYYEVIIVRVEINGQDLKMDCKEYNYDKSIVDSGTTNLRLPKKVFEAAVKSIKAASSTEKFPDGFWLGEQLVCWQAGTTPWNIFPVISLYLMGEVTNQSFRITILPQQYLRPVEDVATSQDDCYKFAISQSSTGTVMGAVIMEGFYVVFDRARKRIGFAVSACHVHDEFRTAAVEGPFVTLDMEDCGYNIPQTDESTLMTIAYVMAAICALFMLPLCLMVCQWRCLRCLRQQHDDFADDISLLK

Compound | IC50 [1] | IC50 ([2]; HEK293, average IC50) | IC50 [2, 3]
Cc1cc(-c2cc(F)c3c(c2)[C@]2(COC(N)=N2)c2cc(-c4cccnc4F)ccc2O3)cc(=O)o1 [Example 200, 4-((4S)-2-amino-4′-fluoro-7′-(2-fluoro-3-pyridinyl)spiro[1,3-oxazole-4,9′-xanthen]-2′-yl)-6-methyl-2H-pyran-2-one] | 0.0006 µM | 0.0085 µM | 
NC1=N[C@@]2(CO1)c1cc(-c3cccnc3F)ccc1Oc1c(F)cc(-c3cnccn3)cc12 [Example 205, (4S)-4′-fluoro-7′-(2-fluoro-3-pyridinyl)-2′-(2-pyrazinyl)spiro[1,3-oxazole-4,9′-xanthen]-2-amine] | 0.0016 µM | 0.0101 µM | 
NC1=N[C@@]2(CO1)c1cc(-c3cncnc3)c(F)cc1Oc1c(F)cc(C3=CCCOC3)cc12 [Example 1039, (4S)-7′-(5,6-dihydro-2H-pyran-3-yl)-3′,5′-difluoro-2′-(5-pyrimidinyl)spiro[1,3-oxazole-4,9′-xanthen]-2-amine] | 0.0004 µM | 0.008 µM | 
NC1=N[C@]2(CO1)c1cc(C3=CCCOC3)cc(F)c1Oc1ccc(-c3cccnc3F)c(F)c12 [Example 1048, (4R)-7′-(5,6-dihydro-2H-pyran-3-yl)-1′,5′-difluoro-2′-(2-fluoro-3-pyridinyl)spiro[1,3-oxazole-4,9′-xanthen]-2-amine] | 0.0039 µM | 0.036 µM | 
Cc1cnc(F)c(-c2ccc3c(c2)[C@@]2(COC(N)=N2)c2cc(C4=CCOCC4)ccc2O3)c1 [Example 191, (4R)-2′-(3,6-dihydro-2H-pyran-4-yl)-7′-(2-fluoro-5-methyl-3-pyridinyl)spiro[1,3-oxazole-4,9′-xanthen]-2-amine] | 0.0056 µM | 0.0356 µM | 
NC1=N[C@@]2(CO1)c1cc(OCc3ccccn3)ccc1Oc1ncc(C3=CCOCC3)cc12 [Example 972, (5S)-3-(3,6-dihydro-2H-pyran-4-yl)-7-(2-pyridinylmethoxy)spiro[chromeno[2,3-b]pyridine-5,4′-[1,3]oxazol]-2′-amine] | 0.0896 µM | 0.629 µM | 
NC1=NC2(CO1)c1cc(-c3cccnc3F)ccc1Oc1c2cc(C#Cc2cccnc2)nc1F (centres unmarked) [Example 735, 1-fluoro-7-(2-fluoro-3-pyridinyl)-3-(3-pyridinylethynyl)spiro[chromeno[2,3-c]pyridine-5,4′-[1,3]oxazol]-2′-amine] | 0.0009 µM | 0.131 µM | 
CC(C)(CF)COc1cc(F)c2c(c1)[C@]1(CSC(N)=N1)c1cc(-c3cccnc3F)ccc1O2 [Example 1081, (4S)-4′-fluoro-2′-(3-fluoro-2,2-dimethylpropoxy)-7′-(2-fluoro-3-pyridinyl)spiro[1,3-thiazole-4,9′-xanthen]-2-amine] | 0.214 µM | 0.899 µM | 
CC1(C)CC(=O)N(c2cc(F)c3c(c2)[C@]2(COC(N)=N2)c2cc(-c4cccnc4F)ccc2O3)C1 [Example 797, 1-((4S)-2-amino-4′-fluoro-7′-(2-fluoro-3-pyridinyl)spiro[1,3-oxazole-4,9′-xanthen]-2′-yl)-4,4-dimethyl-2-pyrrolidinone] | 0.0006 µM | 0.007 µM | 
NC1=N[C@@]2(CO1)c1cc(-c3ccc(F)nc3)ccc1Oc1c(F)cc(C3CCOCC3)cc12 [Example 301, (4S)-4′-fluoro-7′-(6-fluoro-3-pyridinyl)-2′-(tetrahydro-2H-pyran-4-yl)spiro[1,3-oxazole-4,9′-xanthen]-2-amine] | 0.0048 µM | 0.0159 µM | 
NC1=N[C@@]2(CO1)c1cc(-c3cccc(Cl)c3)ccc1Oc1cnc(Cl)cc12 [Example 528, (5S)-3-chloro-7-(3-chlorophenyl)spiro[chromeno[2,3-c]pyridine-5,4′-[1,3]oxazol]-2′-amine] | 0.0553 µM |  | 2.31 µM
NC1=N[C@]2(CS1)c1cc(-c3cncnc3)c(F)cc1Oc1c(F)cc(C3=CCCOC3)cc12 [Example 874, (4R)-7′-(5,6-dihydro-2H-pyran-3-yl)-3′,5′-difluoro-2′-(5-pyrimidinyl)spiro[1,3-thiazole-4,9′-xanthen]-2-amine] | 0.0325 µM |  | 0.506 µM
NC1=N[C@@]2(CO1)c1cc(-c3cccnc3)ccc1Oc1c(F)cc(-n3cccn3)cc12 [Example 684, (4S)-4′-fluoro-2′-(1H-pyrazol-1-yl)-7′-(3-pyridyl)spiro[1,3-oxazole-4,9′-xanthen]-2-amine] | 0.0038 µM |  | 0.034 µM
CC1(C)C=C(c2cnc3c(c2)[C@@]2(COC(N)=N2)c2c(ccc(-c4cncnc4)c2F)O3)CCO1 [Example 354, (5S)-3-(6,6-dimethyl-3,6-dihydro-2H-pyran-4-yl)-6-fluoro-7-(5-pyrimidinyl)spiro[chromeno[2,3-b]pyridine-5,4′-[1,3]oxazol]-2′-amine] | 0.0918 µM | 0.342 µM | 
COc1ncc(-c2cc(F)c3c(c2)[C@]2(COC(N)=N2)c2cc(-c4cncc(F)c4)ccc2O3)cn1 [Example 293, (4S)-4′-fluoro-7′-(5-fluoro-3-pyridinyl)-2′-(2-methoxy-5-pyrimidinyl)spiro[1,3-oxazole-4,9′-xanthen]-2-amine] | 0.0075 µM | 0.0825 µM | 
NC1=N[C@@]2(CO1)c1cc(-c3cnccc3F)ccc1Oc1c(F)cc(C3=CCOCC3)cc12 [Example 1044, (4S)-2′-(3,6-dihydro-2H-pyran-4-yl)-4′-fluoro-7′-(4-fluoro-3-pyridinyl)spiro[1,3-oxazole-4,9′-xanthen]-2-amine] | 0.0005 µM | 0.018 µM | 
NC1=N[C@@]2(CO1)c1cc(-c3cccnc3)c(F)cc1Oc1c(F)cc(C3CCOCC3)cc12 [Example 864, (4S)-3′,5′-difluoro-2′-(3-pyridinyl)-7′-(tetrahydro-2H-pyran-4-yl)spiro[1,3-oxazole-4,9′-xanthen]-2-amine] | 0.0011 µM |  | 0.03 µM
Cc1cncc(-c2ccc3c(c2)[C@@]2(COC(N)=N2)c2cc(C4=CCOCC4)cc(F)c2O3)c1 [Example 446, (4S)-2′-(3,6-dihydro-2H-pyran-4-yl)-4′-fluoro-7′-(5-methyl-3-pyridinyl)spiro[1,3-oxazole-4,9′-xanthen]-2-amine] | 0.0019 µM |  | 0.0054 µM
CC(C)(C)C#Cc1cc2c(nc1F)Oc1ccc(-c3cccnc3F)cc1[C@]21COC(N)=N1 [Example 674, (5R)-3-(3,3-dimethyl-1-butyn-1-yl)-2-fluoro-7-(2-fluoro-3-pyridinyl)spiro[chromeno[2,3-b]pyridine-5,4′-[1,3]oxazol]-2′-amine] | 0.239 µM |  | 2.81 µM

The remaining lines, values ahead:

IC50 [1] | IC50 ([2]; HEK293, average IC50) | IC50 [2, 3] | Compound
0.0481 µM |  | 1.16 µM | CC1(C#Cc2cc3c(nc2F)Oc2ccc(-c4cccnc4F)cc2[C@]32COC(N)=N2)COC1 [Example 900, (5R)-2-fluoro-7-(2-fluoro-3-pyridinyl)-3-((3-methyl-3-oxetanyl)ethynyl)spiro[chromeno[2,3-b]pyridine-5,4′-[1,3]oxazol]-2′-amine]
0.0074 µM |  | 0.0287 µM | Cc1cc(-c2ccc3c(c2)[C@@]2(COC(N)=N2)c2cc(C#CC4(C)COC4)cnc2O3)cnc1F [Example 468, (5S)-7-(6-fluoro-5-methyl-3-pyridinyl)-3-((3-methyl-3-oxetanyl)ethynyl)spiro[chromeno[2,3-b]pyridine-5,4′-[1,3]oxazol]-2′-amine]
2.38 µM | ≥ 10 µM |  | CC#Cc1cncc(-c2cc(F)c3c(c2)[C@]2(COC(N)=N2)c2cc(OC)ccc2O3)c1 [Example 776, (4S)-4′-fluoro-7′-methoxy-2′-(5-(1-propyn-1-yl)-3-pyridinyl)spiro[1,3-oxazole-4,9′-xanthen]-2-amine]
0.0009 µM | 0.004 µM |  | CC#Cc1cncc(-c2ccc3c(c2)[C@@]2(CSC(N)=N2)c2cc(C#CC4(C)COC4)cnc2O3)c1 [Example 782, (5S)-3-((3-methyl-3-oxetanyl)ethynyl)-7-(5-(1-propyn-1-yl)-3-pyridinyl)spiro[chromeno[2,3-b]pyridine-5,4′-[1,3]thiazol]-2′-amine]
0.0022 µM |  | 0.0062 µM | COc1cncc(-c2ccc3c(c2)[C@@]2(COC(N)=N2)c2cc(C4=CCOCC4)cnc2O3)c1 [Example 459, (5S)-3-(3,6-dihydro-2H-pyran-4-yl)-7-(5-methoxy-3-pyridinyl)spiro[chromeno[2,3-b]pyridine-5,4′-[1,3]oxazol]-2′-amine]
0.0017 µM |  | 0.0111 µM | CC1(C)C[C@@H](c2cnc3c(c2)[C@]2(COC(N)=N2)c2cc(-c4cccc(Cl)c4)ccc2O3)CCO1 [Example 465, (5S)-7-(3-chlorophenyl)-3-((4S)-2,2-dimethyltetrahydro-2H-pyran-4-yl)spiro[chromeno[2,3-b]pyridine-5,4′-[1,3]oxazol]-2′-amine]
0.0049 µM | 0.152 µM |  | CC(C)(O)C#Cc1cncc(-c2ccc3c(c2)[C@@]2(COC(N)=N2)c2cc(C4=CCOCC4)ncc2O3)c1 [Example 818, 4-(5-((5S)-2′-amino-3-(3,6-dihydro-2H-pyran-4-yl)spiro[chromeno[2,3-c]pyridine-5,4′-[1,3]oxazol]-7-yl)-3-pyridinyl)-2-methyl-3-butyn-2-ol]
0.0006 µM |  | 0.005 µM | CC1(C#Cc2cnc3c(c2)[C@]2(COC(N)=N2)c2cc(-c4cnccc4F)c(F)cc2O3)COC1 [Example 621, (5S)-8-fluoro-7-(4-fluoro-3-pyridinyl)-3-((3-methyl-3-oxetanyl)ethynyl)spiro[chromeno[2,3-b]pyridine-5,4′-[1,3]oxazol]-2′-amine]
0.0054 µM |  | 0.065 µM | Cn1cc(-c2cnc3c(c2)[C@]2(CSC(N)=N2)c2cc(-c4ccc(F)nc4)ccc2O3)cn1 [Example 962, (5S)-7-(6-fluoro-3-pyridinyl)-3-(1-methyl-1H-pyrazol-4-yl)spiro[chromeno[2,3-b]pyridine-5,4′-[1,3]thiazol]-2′-amine]
